pKi: −log10 of the molar value.

In general, pKi refers to the Ki on a negative log10 scale, so that one unit is a factor of ten. The low end stands for a high Ki, the high end for a low Ki.

Experiment [1] addresses T1, Muscarinic acetylcholine receptor M3 (Homo sapiens, UniProt P20309). The experiment can be described thus: biochemical. It counts as cell-based, HEK-293T.
Target sequence in this assay (P20309 whole entry): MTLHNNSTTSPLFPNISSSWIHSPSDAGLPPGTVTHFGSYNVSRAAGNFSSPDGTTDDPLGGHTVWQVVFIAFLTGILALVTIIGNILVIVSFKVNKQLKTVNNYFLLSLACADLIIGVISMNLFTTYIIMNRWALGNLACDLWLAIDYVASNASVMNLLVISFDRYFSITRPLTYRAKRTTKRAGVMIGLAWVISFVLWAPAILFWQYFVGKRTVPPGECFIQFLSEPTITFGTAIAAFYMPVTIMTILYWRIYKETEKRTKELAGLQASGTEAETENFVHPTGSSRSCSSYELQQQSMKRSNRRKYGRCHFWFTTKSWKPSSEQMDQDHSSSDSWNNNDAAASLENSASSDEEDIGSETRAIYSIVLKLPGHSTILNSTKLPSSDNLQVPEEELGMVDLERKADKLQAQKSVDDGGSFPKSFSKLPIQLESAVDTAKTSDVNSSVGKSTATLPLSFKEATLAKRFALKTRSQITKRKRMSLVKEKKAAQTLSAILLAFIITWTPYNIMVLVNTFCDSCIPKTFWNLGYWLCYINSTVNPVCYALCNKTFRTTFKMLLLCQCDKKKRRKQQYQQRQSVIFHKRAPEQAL
Description: Binding affinity to wild type human M3 receptor expressed in HEK293T cells up to 24 hrs by radioligand displacement assay
Experiment [2] deals with Muscarinic acetylcholine receptor M3 (Homo sapiens), P20309 [K213A]. Conditions: HEK-293T.
The test system of experiment [3] is Muscarinic acetylcholine receptor M3 (Homo sapiens), P20309 [E228A]. Conditions: HEK-293T.
Muscarinic acetylcholine receptor M3 (Homo sapiens), P20309 [E228A], sequence (P20309 whole entry E228A): as the sequence (P20309 whole entry) above, with E228A counted along it
The target in experiment [4] is T1, Muscarinic acetylcholine receptor M3. Conditions: HEK-293T.
Target sequence in this assay (P20309 whole entry, looked up): as the sequence (P20309 whole entry) above
Description: Binding affinity to wild type human M3 receptor expressed in HEK293T cells assessed as half life by radioligand displacement assay
The subject of experiment [5] is Muscarinic acetylcholine receptor M3 (Homo sapiens), P20309 [F225A]. Conditions: HEK-293T.
In experiment [6] the test system is Muscarinic acetylcholine receptor M3 (Homo sapiens), P20309 [Q224A]. Conditions: HEK-293T.
Muscarinic acetylcholine receptor M3 (Homo sapiens), P20309 [Q224A], sequence (P20309 whole entry Q224A): as the sequence (P20309 whole entry) above, with Q224A counted along it
The test system of experiment [7] is Muscarinic acetylcholine receptor M3 (Homo sapiens), P20309 [K523A]. Conditions: HEK-293T.
Muscarinic acetylcholine receptor M3 (Homo sapiens), P20309 [K523A], sequence (P20309 whole entry K523A): as the sequence (P20309 whole entry) above, with K523A counted along it
The subject of experiment [8] is Muscarinic acetylcholine receptor M3 (Homo sapiens), P20309 [E220A]. Conditions: HEK-293T.
In experiment [9] the test system is Muscarinic acetylcholine receptor M3 (Homo sapiens), P20309 [D518A]. Conditions: HEK-293T.
Muscarinic acetylcholine receptor M3 (Homo sapiens), P20309 [D518A], sequence (P20309 whole entry D518A): as the sequence (P20309 whole entry) above, with D518A counted along it
Experiment [10] relates to Muscarinic acetylcholine receptor M3 (Homo sapiens), P20309 [F222A]. Conditions: HEK-293T.
Muscarinic acetylcholine receptor M3 (Homo sapiens), P20309 [F222A], sequence (P20309 whole entry F222A): as the sequence (P20309 whole entry) above, with F222A counted along it
Experiment [11] concerns Muscarinic acetylcholine receptor M3 (Homo sapiens), P20309 [R133A]. Conditions: HEK-293T.
Muscarinic acetylcholine receptor M3 (Homo sapiens), P20309 [R133A], sequence (P20309 whole entry R133A): as the sequence (P20309 whole entry) above, with R133A counted along it

Muscarinic acetylcholine receptor M3 (Homo sapiens), P20309 [K213A], sequence (P20309 whole entry K213A): as the sequence (P20309 whole entry) above, with K213A counted along it
Muscarinic acetylcholine receptor M3 (Homo sapiens), P20309 [E220A], sequence (P20309 whole entry E220A): as the sequence (P20309 whole entry) above, with E220A counted along it
Muscarinic acetylcholine receptor M3 (Homo sapiens), P20309 [F225A], sequence (P20309 whole entry F225A): as the sequence (P20309 whole entry) above, with F225A counted along it

In turn, `C[N+]1(C)[C@@H]2C[C@H](OC(=O)C(O)c3ccccc3)C[C@H]1[C@@H]1O[C@@H]12` (stereo partly specified) had a pKi in [1] of 8.70.

Regarding `C[N+]1(C)[C@@H]2C[C@H](OC(=O)C(CO)(c3cccs3)c3cccs3)C[C@H]1[C@@H]1O[C@@H]12`, in [1], the pKi was 9.50.

As for `C[N+]1(C)[C@@H]2C[C@@H](OC(=O)C(O)(c3cccs3)c3cccs3)C[C@H]1[C@@H]1O[C@@H]12`, the T1/2 in [2] was 20.4 h; in experiment [3] it was 20.1 h; in experiment [4], 24.5 h; in [5], 13.8 h; in [6], 12.4 h; in experiment [7], 12.5 h. For the same molecule, the T1/2 in experiment [8] stood at 31.7 h; in experiment [9], 22.6 h; in experiment [10], 23 h; in [11], 25.4 h.

In experiment [1], `COC(C(=O)O[C@H]1C[C@@H]2[C@H]3O[C@H]3[C@H](C1)[N+]2(C)C)(c1cccs1)c1cccs1` showed a negative-log Ki (pKi) of 8.80.

`CC(C(=O)O[C@H]1C[C@@H]2[C@H]3O[C@H]3[C@H](C1)[N+]2(C)C)(c1cccs1)c1cccs1` had a pKi in experiment [1] of 10.30.

Turning to `C[N+]1(C)[C@@H]2C[C@H](OC(=O)C(O)c3cccs3)C[C@H]1[C@@H]1O[C@@H]12` (stereo partly specified), the negative-log Ki (pKi) in experiment [1] is 8.30.

Turning to `C[N+]1(C)[C@@H]2C[C@H](OC(=O)C(O)(c3ccccc3)c3ccccc3)C[C@H]1[C@@H]1O[C@@H]12`, in experiment [1], the pKi is 10.20.

For the origin of these results see ChEMBL document CHEMBL3091362, “Molecular basis for the long duration of action and kinetic selectivity of tiotropium for the muscarinic M3 receptor” (J Med Chem, 2013).
